Here are results for seven compounds from ChEMBL document CHEMBL1201862, “PubChem BioAssay data set” (2004).

Structures are written as SMILES.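 A five-concentration, 48-hour dose response in 96-well plates underlies each endpoint, interpolated linearly between surrounding concentrations. GI50 marks 50% less growth.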 Active and inactive are the calls of the source. No stated cut-off is given here; in the data, active = GI50 up to about 1.1 µM and inactive = higher. A value given as a limit tells only on which side of the number the result lay.

What all share (test): inhibition of tumour cell growth, NCI panel, 48 h
The subject of assay [1] is SK-MEL-28.
Assay [2] relates to COLO 205.
Assay [3] relates to MOLT-4.
Assay [4] concerns OVCAR-5.
The test system of assay [5] is SF-539.
Assay [6] relates to A498.
Assay [7] relates to Hs-578T.
Assay [8] has as its system TK-10.
Assay [9] concerns MDA-MB-435.
Assay [10] deals with HCT-15.
For assay [11], the system named is IGROV-1.
Assay [12] deals with MCF7.
Assay [13] has as its system UO-31.
Assay [14] relates to Malme-3M.
The test system of assay [15] is HOP-92.
Assay [16] deals with MDA-N.
Assay [17] concerns HL-60.
For assay [18], the system named is ACHN.
In assay [19] the test system is HCT-116.
In assay [20] the test system is PC-3.

Consider `CCOC(=O)c1c(Br)c(-c2ccc(Br)cc2)c(Br)n1C`, for which the GI50 in assay [1] is 15.3 µM (inactive); in assay [2], 14.9 µM (inactive); in assay [3], 16.4 µM (inactive); in [4], 19.4 µM (inactive); in assay [5] it was 21.3 µM (inactive); in [6] it was 18.2 µM (inactive). The GI50 is 34.3 µM (inactive) in assay [7]; 39 µM (inactive) in assay [8]; 3.15 µM (inactive) in assay [9]; 13 µM in assay [10]; 12.2 µM (inactive) in [11]; 22.8 µM (inactive) in assay [12]. Further, the GI50 in assay [13] is 17.9 µM (inactive); in assay [14], 18.5 µM (inactive); in assay [15], 7.31 µM (inactive); in assay [16], 3.4 µM (inactive); in assay [17], 6.59 µM (inactive); in [18], 23.4 µM (inactive). Also, the results for the GI50 in [19] and in assay [20] were 6.32 µM (inactive) and 19.4 µM (inactive), respectively.
As for `COC(=O)c1c(OC(C)=O)ccc2c1c1c(OC(C)=O)c3ccccc3c(OC(C)=O)c1n2Cc1cc(OC)cc(OC)c1`, the GI50 was 24.4 µM (inactive) in assay [1]; 26.1 µM (inactive) in assay [2]; 17.2 µM (inactive) in assay [3]; > 100 µM (inactive) in assay [4]; 3.09 µM (inactive) in [5]; 23.1 µM (inactive) in [6]. In addition, the GI50 in assay [7] is 14.2 µM (inactive); in [8], 66.7 µM (inactive); in [9], 6.64 µM (inactive); in [10], 4.32 µM; in assay [11] it was 9.1 µM (inactive); in [12], 26.1 µM (inactive). Besides, the GI50 in assay [13] was 6.76 µM (inactive); in assay [14] it was 12 µM (inactive); in [15], 1.8 µM (inactive); in assay [16], 5.12 µM (inactive); in assay [17], 7.78 µM (inactive); in assay [18] it was 30.8 µM (inactive). Moreover, the GI50 in assay [19] was 7.82 µM (inactive); in assay [20] it was 4.66 µM (inactive).
Take `Cc1nc2cc([N+](=O)[O-])ccc2c(NCCCN(C)C)c1C`: the GI50 in [1] was 50.5 µM (inactive); in assay [2] it was 2.56 µM (inactive); in [3] it was 1.91 µM (inactive); in assay [4], 13.2 µM (inactive); in assay [5], 13.7 µM (inactive); in assay [6], 14.9 µM (inactive). The GI50 in assay [7] was 20 µM (inactive); in [8] it was 23.5 µM (inactive); in [9], 15.6 µM (inactive); in assay [10], 14.7 µM; in [11] it was 3.22 µM (inactive); in assay [12], 2.94 µM (inactive). For the same compound, the GI50 was 14.7 µM (inactive) in assay [13]; 6.22 µM (inactive) in assay [14]; 1.95 µM (inactive) in assay [15]; 14.8 µM (inactive) in assay [16]; 28.8 µM (inactive) in assay [17]; 20 µM (inactive) in assay [18]. Also, the GI50 is 4.68 µM (inactive) in [19] and 4.71 µM (inactive) in assay [20].
For the compound `CCC(=O)c1ccc2[nH]c3c(C)c4c(O)cc(C)nc4c(C)c3c2c1`, the GI50 in [1], in assay [2], in assay [3], in [4], in assay [5] and in assay [6] was > 100 µM (inactive) in each case. Also, the GI50 in [7] was > 100 µM (inactive); in assay [8] it was 63.2 µM (inactive); in assay [9], > 100 µM (inactive); in [10], over 100 µM; in assay [11], > 100 µM (inactive); in assay [12], > 100 µM (inactive). Besides, the GI50 is > 100 µM (inactive) in assay [13]; > 100 µM (inactive) in [14]; 4.3 µM (inactive) in [15]; > 100 µM (inactive) in assay [16]; > 100 µM (inactive) in assay [17]; > 100 µM (inactive) in assay [18]. Also, the GI50 in assay [19] and in assay [20] was > 100 µM (inactive) each time.
For `CCOC1NC(=O)Oc2ccccc21` (stereo not given), the GI50 in [1], in [2], in assay [3], in [4], in [5] and in assay [6] was > 100 µM (inactive) each time. The GI50 in [7] was > 100 µM (inactive); in assay [8] it was > 100 µM (inactive); in assay [9], > 100 µM (inactive); in assay [10], over 100 µM; in assay [11], > 100 µM (inactive); in assay [12], > 100 µM (inactive). Besides, the GI50 in assay [13], in [14], in [15], in assay [16], in assay [17] and in [18] was > 100 µM (inactive) each time. The GI50 in assay [19] and in assay [20] was > 100 µM (inactive) each time.
As for `Nc1onc2c1Cc1c(noc1N)-c1ccccc1-2`, the GI50 in [1] is > 100 µM (inactive); in [2], 58.6 µM (inactive); in [3], 74.8 µM (inactive); in [4] it was > 100 µM (inactive); in assay [5], 96.8 µM (inactive); in assay [6], 26.7 µM (inactive). Further, the GI50 is 26.9 µM (inactive) in [7]; > 100 µM (inactive) in assay [8]; 25.2 µM (inactive) in [9]; 43.8 µM in assay [10]; 54.5 µM (inactive) in assay [11]; 49.7 µM (inactive) in [12]. Further, the GI50 is 53.6 µM (inactive) in assay [13]; 41.9 µM (inactive) in [14]; 37.2 µM (inactive) in assay [15]; 48.9 µM (inactive) in [16]; 19.8 µM (inactive) in [17]; 35.4 µM (inactive) in assay [18]. Also, the GI50 in assay [19] was 48.9 µM (inactive); in assay [20] it was 48.3 µM (inactive).
On to `COc1ccc(N2C(=O)C3c4[nH]c5ccc(OC)cc5c4C4CCC(c5ccccc5)CC4C3C2=O)cc1` (stereo not given), for which the GI50 in assay [1] is 14.1 µM (inactive); in [2] it was 6.19 µM (inactive); in [3], 4.32 µM (inactive); in assay [4] it was 20.6 µM (inactive); in [5] it was 2.09 µM (inactive); in assay [6], 14.2 µM (inactive). The GI50 in assay [7] is 1.6 µM (inactive); in [8], 21.8 µM (inactive); in assay [9], 16.4 µM (inactive); in assay [10], 31.3 µM; in assay [11], 16.1 µM (inactive); in assay [12], 19.6 µM (inactive). Further, the GI50 in assay [13] was 29.6 µM (inactive); in assay [14], 11.4 µM (inactive); in assay [15] it was 16.7 µM (inactive); in assay [16], 18.4 µM (inactive); in [17], 11.5 µM (inactive); in assay [18], 9.48 µM (inactive). The GI50 is 1.11 µM (active) in assay [19] and 19.2 µM (inactive) in assay [20].
